Experiments:
Test in all cases: IC50 for competition of protein binding to Kinobeads
Conditions in all cases: assay detail: Kinobeads competition in P. falciparum blood-stage lysate
UniProt C6KSY0 = biological target: UniProt C6KSY0
UniProt C6KT13 = biological target: UniProt C6KT13
UniProt C6KT18 = biological target: UniProt C6KT18
UniProt C6KTB9 = biological target: UniProt C6KTB9
UniProt O77376 = biological target: UniProt O77376
UniProt O96217 = biological target: UniProt O96217
UniProt O96260 = biological target: UniProt O96260
UniProt O96278 = biological target: UniProt O96278
UniProt O97282 = biological target: UniProt O97282
UniProt Q6ZMA8 = biological target: UniProt Q6ZMA8
UniProt Q7KQK6 = biological target: UniProt Q7KQK6
UniProt Q8I259 = biological target: UniProt Q8I259
UniProt Q8I272 = biological target: UniProt Q8I272
UniProt Q8I274 = biological target: UniProt Q8I274
UniProt Q8I291 = biological target: UniProt Q8I291
UniProt Q8I2W3 = biological target: UniProt Q8I2W3
UniProt Q8I353 = biological target: UniProt Q8I353
UniProt Q8I374 = biological target: UniProt Q8I374
UniProt Q8I3F1 = biological target: UniProt Q8I3F1
UniProt Q8I3M5 = biological target: UniProt Q8I3M5
UniProt Q8I3X4 = biological target: UniProt Q8I3X4
UniProt Q8I3X4, sequence (Q8I3X4 whole entry): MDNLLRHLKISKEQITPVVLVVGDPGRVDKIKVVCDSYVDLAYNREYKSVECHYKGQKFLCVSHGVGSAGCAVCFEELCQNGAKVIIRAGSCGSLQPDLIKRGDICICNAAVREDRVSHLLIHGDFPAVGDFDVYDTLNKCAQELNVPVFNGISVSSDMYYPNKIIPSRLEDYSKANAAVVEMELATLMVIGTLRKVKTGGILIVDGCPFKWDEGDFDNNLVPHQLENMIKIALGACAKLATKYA

UniProt Q8I3Z5 = biological target: UniProt Q8I3Z5
UniProt Q8I3Z5, sequence (Q8I3Z5 whole entry): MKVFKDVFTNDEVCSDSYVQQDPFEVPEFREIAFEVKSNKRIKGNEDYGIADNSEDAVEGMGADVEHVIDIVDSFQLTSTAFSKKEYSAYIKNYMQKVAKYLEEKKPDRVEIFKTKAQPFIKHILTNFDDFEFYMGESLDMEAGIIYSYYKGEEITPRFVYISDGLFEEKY

UniProt Q8I4R5 = biological target: UniProt Q8I4R5
UniProt Q8I4U5 = biological target: UniProt Q8I4U5
UniProt Q8I5T4 = biological target: UniProt Q8I5T4
UniProt Q8I608 = biological target: UniProt Q8I608
UniProt Q8IAX5 = biological target: UniProt Q8IAX5
UniProt Q8IAX8 = biological target: UniProt Q8IAX8
UniProt Q8IAX8, sequence (Q8IAX8 whole entry): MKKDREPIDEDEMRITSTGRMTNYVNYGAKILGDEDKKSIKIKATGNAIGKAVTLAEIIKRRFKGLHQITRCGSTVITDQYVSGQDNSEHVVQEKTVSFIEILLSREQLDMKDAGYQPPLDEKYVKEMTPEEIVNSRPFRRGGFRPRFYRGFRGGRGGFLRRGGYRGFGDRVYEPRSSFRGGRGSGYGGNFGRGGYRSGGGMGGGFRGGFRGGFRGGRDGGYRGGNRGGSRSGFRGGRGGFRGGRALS

UniProt Q8IBN5 = biological target: UniProt Q8IBN5
UniProt Q8IBU2 = biological target: UniProt Q8IBU2
UniProt Q8IDB7 = biological target: UniProt Q8IDB7
UniProt Q8IDK7 = biological target: UniProt Q8IDK7
UniProt Q8IDM3 = biological target: UniProt Q8IDM3
UniProt Q8IDW1 = biological target: UniProt Q8IDW1
UniProt Q8IDX8 = biological target: UniProt Q8IDX8
UniProt Q8IDZ8 = biological target: UniProt Q8IDZ8
UniProt Q8IE81 = biological target: UniProt Q8IE81
UniProt Q8IE84 = biological target: UniProt Q8IE84
UniProt Q8IEE9 = biological target: UniProt Q8IEE9
UniProt Q8IEF0 = biological target: UniProt Q8IEF0
UniProt Q8IHT4 = biological target: UniProt Q8IHT4
UniProt Q8II16 = biological target: UniProt Q8II16
UniProt Q8IIL0 = biological target: UniProt Q8IIL0
UniProt Q8IIL0, sequence (Q8IIL0 whole entry): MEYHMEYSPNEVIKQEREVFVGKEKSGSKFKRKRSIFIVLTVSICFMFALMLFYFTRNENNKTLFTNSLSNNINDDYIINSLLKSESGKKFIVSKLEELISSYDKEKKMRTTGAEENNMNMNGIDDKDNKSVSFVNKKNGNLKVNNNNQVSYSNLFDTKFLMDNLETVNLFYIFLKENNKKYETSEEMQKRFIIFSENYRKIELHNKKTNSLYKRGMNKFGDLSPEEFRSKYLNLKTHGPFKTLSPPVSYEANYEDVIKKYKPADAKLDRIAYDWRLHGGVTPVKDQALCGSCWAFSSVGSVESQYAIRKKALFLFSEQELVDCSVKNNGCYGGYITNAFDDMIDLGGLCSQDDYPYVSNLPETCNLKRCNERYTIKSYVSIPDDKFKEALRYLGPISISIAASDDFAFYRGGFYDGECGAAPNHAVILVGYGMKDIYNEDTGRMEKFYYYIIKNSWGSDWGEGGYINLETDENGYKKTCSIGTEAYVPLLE

UniProt Q8IKA6 = biological target: UniProt Q8IKA6
UniProt Q8IKM5 = biological target: UniProt Q8IKM5
UniProt Q8IL41 = biological target: UniProt Q8IL41
UniProt Q8IL48 = biological target: UniProt Q8IL48
UniProt Q8IL94 = biological target: UniProt Q8IL94
UniProt Q8ILJ7 = biological target: UniProt Q8ILJ7
UniProt Q8ILQ8 = biological target: UniProt Q8ILQ8
UniProt Q8ILS7 = biological target: UniProt Q8ILS7

Measured: IC50
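Also: native unpurified kinases from lysate captured on beads bearing immobilized kinase inhibitors, with bead-bound kinases quantified by mass spectrometry across compound doses.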

O=c1[nH]c2ccc(Cl)cc2c(NC2CN3CCC2CC3)c1-c1nc2ccccc2[nH]1 (stereo unspecified) [CHIR-124]
> 20 µM: all assays above

From the supplement of paper PMC13386468
